Results published in patent publication US5545547A, “Enzymes as agricultural chemical adjuvants” (priority 1992, dated 1996).

Key:
Type in all cases: in vivo
Barnyard Grass = assay: Greenhouse multispecies herbicide screen with/without P. mendocina enzyme
Description: (§1) Several plant species including weeds and crops are used in these experiments.
(§2) A number of herbicides from various chemical classes were compared in a multispecies screen for percent chlorosis, necrosis and vigor reduction both with and without application of the enzyme from Pseudomonas mendocina ATCC 53552 described earlier. […] Two different enzyme concentrations were used: 0.5 mg/ml (HE) and 0.05 mg/ml (LE) and applied at the rate of 40 gallons/acre. All spraying solutions were at pH 10 and contained 100 mm sodium phosphate each. […] All the experiments were carried out in a greenhouse.
(§3) Chlorosis--figures represent percent of plants showing chlorosis.
(§4) Necrosis--figures represent percent of plants showing necrosis.
(§5) Vigor--figures represent percent of plants showing decreased vigor.
(§6) Phytotoxicity--figures represent the average percent of chlorosis, necrosis, and vigor for a given sample.

Alfalfa = assay: as above
Description: as §1, §2, §3, §4, §5, §6

various plants = assay: Greenhouse multispecies herbicide screen, statements on all tested plants; settings: High HYVAR; all other tested conditions; after two weeks
Excerpt: as §1
A number of herbicides from various chemical classes were compared in a multispecies screen for percent chlorosis, necrosis and vigor reduction both with and without application of the enzyme from Pseudomonas mendocina ATCC 53552 described earlier. The herbicides were applied to various plants at the manufacturers recommended doses and at 10% and 40% of the recommended dose. Two different enzyme concentrations were used: 0.5 mg/ml (HE) and 0.05 mg/ml (LE) and applied at the rate of 40 gallons/acre. All spraying solutions were at pH 10 and contained 100 mm sodium phosphate each. […] All the experiments were carried out in a greenhouse.

[1] = HYVAR 10% dose, High Enzyme, one week after treatment
[2] = HYVAR 10% dose, Low Enzyme, one week after treatment
[3] = HYVAR 10% dose, No Enzyme, one week after treatment
[4] = HYVAR 18%, High Enzyme, two weeks after treatment
[5] = HYVAR 18%, Low Enzyme, two weeks after treatment
[6] = HYVAR 18%, No Enzyme, two weeks after treatment
[7] = HYVAR 40% dose, High Enzyme, one week after treatment
[8] = HYVAR 40% dose, Low Enzyme, one week after treatment
[9] = HYVAR 40% dose, No Enzyme, one week after treatment
[10] = HYVAR 100% dose, No Enzyme, one week after treatment

In the case of CCC(C)n1c(=O)[nH]c(C)c(Br)c1=O (stereo not drawn) [HYVAR, 5-bromo-6-methyl-3-(1-methylpropyl)-2,4-(1H,3H)-pyrimidinedione], the “CHL (chlorosis)” value (Barnyard Grass; [1]) is reported as 25%, the “NEC (necrosis)” value (Barnyard Grass; [1]) is reported as 10% and the “PHY (phytotoxicity)” value (Barnyard Grass; [1]) is reported as 28%. The “VIG (vigor)” value (Barnyard Grass; [1]) was 50%, the “CHL (chlorosis)” value (Barnyard Grass; [2]) was 50% and the “NEC (necrosis)” value (Barnyard Grass; [2]) was 18%. For the same compound, the “PHY (phytotoxicity)” value (Barnyard Grass; [2]) was 39%, the “VIG (vigor)” value (Barnyard Grass; [2]) was 50% and the “CHL (chlorosis)” value (Barnyard Grass; [3]) was 30%. The “NEC (necrosis)” value (Barnyard Grass; [3]) was 25%, the “PHY (phytotoxicity)” value (Barnyard Grass; [3]) was 28% and the “VIG (vigor)” value (Barnyard Grass; [3]) was 30%. The “CHL (chlorosis)” value (Barnyard Grass; [4]) was 95%, the “NEC (necrosis)” value (Barnyard Grass; [4]) was 88% and the “PHY (phytotoxicity)” value (Barnyard Grass; [4]) was 90%. For the same compound, the “VIG (vigor)” value (Barnyard Grass; [4]) was 88%, the “CHL (chlorosis)” value (Barnyard Grass; [5]) was 88% and the “NEC (necrosis)” value (Barnyard Grass; [5]) was 85%. For the same compound, the “PHY (phytotoxicity)” value (Barnyard Grass; [5]) was 86%, the “VIG (vigor)” value (Barnyard Grass; [5]) was 85% and the “CHL (chlorosis)” value (Barnyard Grass; [6]) was 85%. For the same compound, the “NEC (necrosis)” value (Barnyard Grass; [6]) was 78%, the “PHY (phytotoxicity)” value (Barnyard Grass; [6]) was 80% and the “VIG (vigor)” value (Barnyard Grass; [6]) was 78%. The “CHL (chlorosis)” value (Barnyard Grass; [7]) was 55%, the “NEC (necrosis)” value (Barnyard Grass; [7]) was 50% and the “PHY (phytotoxicity)” value (Barnyard Grass; [7]) was 45%. For the same compound, the “VIG (vigor)” value (Barnyard Grass; [7]) was 30%, the “CHL (chlorosis)” value (Barnyard Grass; [8]) was 55% and the “NEC (necrosis)” value (Barnyard Grass; [8]) was 60%. The “PHY (phytotoxicity)” value (Barnyard Grass; [8]) was 59%, the “VIG (vigor)” value (Barnyard Grass; [8]) was 63% and the “CHL (chlorosis)” value (Barnyard Grass; [9]) was 65%. For the same compound, the “NEC (necrosis)” value (Barnyard Grass; [9]) was 30%, the “PHY (phytotoxicity)” value (Barnyard Grass; [9]) was 50% and the “VIG (vigor)” value (Barnyard Grass; [9]) was 55%. The “CHL (chlorosis)” value (Barnyard Grass; [10]) was 50%, the “NEC (necrosis)” value (Barnyard Grass; [10]) was 60% and the “PHY (phytotoxicity)” value (Barnyard Grass; [10]) was 62%. For the same compound, the “VIG (vigor)” value (Barnyard Grass; [10]) was 75%, the “CHL (chlorosis)” value (Alfalfa; [1]) was 18% and the “NEC (necrosis)” value (Alfalfa; [1]) was 0%. The “PHY (phytotoxicity)” value (Alfalfa; [1]) was 10%, the “VIG (vigor)” value (Alfalfa; [1]) was 10% and the “CHL (chlorosis)” value (Alfalfa; [2]) was 50%. The “NEC (necrosis)” value (Alfalfa; [2]) was 5%, the “PHY (phytotoxicity)” value (Alfalfa; [2]) was 28% and the “VIG (vigor)” value (Alfalfa; [2]) was 30%. The “CHL (chlorosis)” value (Alfalfa; [3]) was 10%, the “NEC (necrosis)” value (Alfalfa; [3]) was 5% and the “PHY (phytotoxicity)” value (Alfalfa; [3]) was 8%. The “VIG (vigor)” value (Alfalfa; [3]) was 10%, the “CHL (chlorosis)” value (Alfalfa; [4]) was 100% and the “NEC (necrosis)” value (Alfalfa; [4]) was 100%. For the same compound, the “PHY (phytotoxicity)” value (Alfalfa; [4]) was 100%, the “VIG (vigor)” value (Alfalfa; [4]) was 100% and the “CHL (chlorosis)” value (Alfalfa; [5]) was 100%. For the same compound, the “NEC (necrosis)” value (Alfalfa; [5]) was 100%, the “PHY (phytotoxicity)” value (Alfalfa; [5]) was 100% and the “VIG (vigor)” value (Alfalfa; [5]) was 100%. The “CHL (chlorosis)” value (Alfalfa; [6]) was 55%, the “NEC (necrosis)” value (Alfalfa; [6]) was 58% and the “PHY (phytotoxicity)” value (Alfalfa; [6]) was 57%. The “VIG (vigor)” value (Alfalfa; [6]) was 58%, the “CHL (chlorosis)” value (Alfalfa; [7]) was 30% and the “NEC (necrosis)” value (Alfalfa; [7]) was 13%. The “PHY (phytotoxicity)” value (Alfalfa; [7]) was 24%, the “VIG (vigor)” value (Alfalfa; [7]) was 30% and the “CHL (chlorosis)” value (Alfalfa; [8]) was 30%. For the same compound, the “NEC (necrosis)” value (Alfalfa; [8]) was 30%, the “PHY (phytotoxicity)” value (Alfalfa; [8]) was 37% and the “VIG (vigor)” value (Alfalfa; [8]) was 50%. For the same compound, the “CHL (chlorosis)” value (Alfalfa; [9]) was 25%, the “NEC (necrosis)” value (Alfalfa; [9]) was 5% and the “PHY (phytotoxicity)” value (Alfalfa; [9]) was 15%. The “VIG (vigor)” value (Alfalfa; [9]) was 15%, the “CHL (chlorosis)” value (Alfalfa; [10]) was 50% and the “NEC (necrosis)” value (Alfalfa; [10]) was 10%. For the same compound, the “PHY (phytotoxicity)” value (Alfalfa; [10]) was 37%, the “VIG (vigor)” value (Alfalfa; [10]) was 50% and the kill (various plants) was 100%.
